Assay results from patent US6534542B2, “(2-hydroxy)ethyl-thioureas useful as modulators of α2B adrenergic receptors” (Allergen Sales, Inc., priority 2001, dated 2003).

target: T1, alpha2B receptor (Homo sapiens, UniProt P18089); assay: Receptor Selection and Amplification Technology (RSAT) assay, alpha2B; type: cell-based; conditions: NIH-3T3 cells; NA = not active at concentrations less than 10 micromolar; read-out: RSAT EC50 (nM) Alpha 2B
T1 construct: expressed in transfected cells; host or cells: NIH-3T3
T1 sequence (P18089 1-450): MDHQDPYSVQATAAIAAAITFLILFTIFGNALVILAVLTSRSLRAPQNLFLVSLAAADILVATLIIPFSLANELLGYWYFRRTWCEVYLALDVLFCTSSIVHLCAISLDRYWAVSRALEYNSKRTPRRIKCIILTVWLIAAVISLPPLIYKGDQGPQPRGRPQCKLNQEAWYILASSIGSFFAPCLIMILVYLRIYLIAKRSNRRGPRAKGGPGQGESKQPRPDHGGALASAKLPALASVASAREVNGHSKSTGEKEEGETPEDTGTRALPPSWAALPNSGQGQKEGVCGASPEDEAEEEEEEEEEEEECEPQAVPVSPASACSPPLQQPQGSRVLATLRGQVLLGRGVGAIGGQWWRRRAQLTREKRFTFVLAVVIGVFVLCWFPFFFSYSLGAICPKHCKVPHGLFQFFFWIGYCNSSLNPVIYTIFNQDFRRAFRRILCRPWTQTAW
Text: The compounds of the invention are agonists of α2 adrenergic receptors, particularly they tend to be specific or selective agonists of α2B and/or to a lesser extent α2C adrenergic receptors, in preference over α2A adrenergic receptors. […] Al., 1995, Pharmacol. Toxicol. 76, pp. 308-311 (incorporated herein by reference) and is also described below. Another reference pertinent to this assay is Conklin et al. (1993) Nature 363:274-6, also incorporated herein by reference.
The RSAT assay measures a receptor-mediated loss of contact inhibition that results in selective proliferation of receptor-containing cells in a mixed population of confluent cells. The increase in cell number is assessed with an appropriate transfected marker gene such as β-galactosidase, the activity of which can be easily measured in a 96-well format. Receptors that activate the G protein, Gq, elicit this response. Alpha2 receptors, which normally couple to Gi, activate the RSAT response when coexpressed with a hybrid Gq protein that has a Gi receptor recognition domain, called Gq/i5^2.
NIH-3T3 cells are plated at a density of 2×10^6 cells in 15 cm dishes and maintained in Dulbecco's modified Eagle's medium supplemented with 10% calf serum. One day later, cells are cotransfected by calcium phosphate precipitation with mammalian expression plasmids encoding p-SV-β-galactosidase (5-10 μg), receptor (1-2 μg) and G protein (1-2 μg). 40 μg salmon sperm DNA may also be included in the transfection mixture. Fresh media is added on the following day and 1-2 days later, cells are harvested and frozen in 50 assay aliquots. Cells are thawed and 100 μl added to 100 μl aliquots of various concentrations of drugs in triplicate in 96-well dishes. Incubations continue 72-96 hr at 37°. After washing with phosphate-buffered saline, β-galactosidase enzyme activity is determined by adding 200 μl of the chromogenic substrate (consisting of 3.5 mM o-nitrophenyl-β-D-galactopyranoside and 0.5% nonidet P-40 in phosphate buffered saline), incubating overnight at 30 and measuring optical density at 420 nm. The absorbance is a measure of enzyme activity, which depends on cell number and reflects a receptor-mediated cell proliferation. The EC50 and maximal effect of each drug at each alpha2 receptor is determined. The efficacy or intrinsic activity is calculated as a ratio of the maximal effect of the drug to the maximal effect of a standard full agonist for each receptor subtype. Brimonidine, also called […], the chemical structure of which is shown below, is used as the standard agonist for the alpha2A, alpha2B and alpha2C receptors. [drawing 6]
The results of the RSAT assay with several exemplary compounds of the invention are disclosed in Table 3. […] NA stands for “not active” at concentrations less than 10 micromolar. As is known EC50 is the concentration at which half of a given compound's maximal activity is observed. It can be seen from the table that the compounds of the invention are specific or selective agonists of α2B and/or α2C adrenergic receptors, with no agonist like activity or only with insignificant agonist-like activity on α2A receptors.

Row | Compound | EC50 [nM]
1 | OCCNC(=S)NC1CCCCC1 [Compound 6, 1-Cyclohexyl-3-(2-hydroxy-ethyl)-thiourea] | 311
2 | OCCNC(=S)N[C@H]1CC[C@H](O)CC1 [Compound 7, 1-(4-Hydroxy-cyclohexyl)-3-(2-hydroxy-ethyl)-thiourea] | > 2000
3 | C[C@H]1CCC[C@H](NC(=S)NCCO)C1 (single isomer, unassigned) [Compound 39, (cis)-1-(2-Hydroxy-ethyl)-3-(3-methyl-cyclohexyl)-thiourea] | 80
4 | OCCNC(=S)NCC1=CCCCC1 [Compound 3, 1-(Cyclohex-1-enylmethyl)-3-(2-hydroxy-ethyl)-thiourea] | 877
5 | OCCNC(=S)NCC1CCCCC1 [Compound 1, 1-Cyclohexylmethyl-3-(2-hydroxy-ethyl)-thiourea] | 204
6 | CC[C@H]1CC[C@H](NC(=S)NCCO)CC1 [Compound 36, (trans)-1-(2-Hydroxy-ethyl)-3-(4-ethyl-cyclohexyl)-thiourea] | 97
7 | CC1=CCCCC1CNC(=S)NCCO (stereo not drawn) [Compound 21, 1-(2-Hydroxy-ethyl)-3-(2-methyl-cyclohex-2-enylmethyl)-thiourea] | 72
8 | CC1=CC(CNC(=S)NCCO)CCC1 (stereo not drawn) [Compound 20, 1-(2-Hydroxy-ethyl)-3-(3-methyl-cyclohex-2-enylmethyl)-thiourea] | 37
9 | CC1=C(CNC(=S)NCCO)CCCC1 [Compound 23, 1-(2-Hydroxy-ethyl)-3-(2-methyl-cyclohex-1-enylmethyl)-thiourea] | 125
10 | CC1=CC(NC(=S)NCCO)CCC1 (stereo not drawn) [Compound 16, 1-(2-Hydroxy-ethyl)-3-(3-methyl-cyclohex-2-enyl)-thiourea] | 58
11 | OCCNC(=S)NCC1CCCCCC1 [Compound 10, 1-Cycloheptylmethyl-3-(2-hydroxy-ethyl)-thiourea] | 355
12 | CC1CC=CCC1CNC(=S)NCCO (stereo not drawn) [Compound 11, 1-(2-hydroxy-ethyl)-3-(6-methyl-cyclohex-3-enylmethyl)-thiourea] | 20
13 | CCC1=CC(CNC(=S)NCCO)CCC1 (stereo not drawn) [Compound 19, 1-(2-Hydroxy-ethyl)-3-(3-ethyl-cyclohex-2-enylmethyl)-thiourea] | 55
14 | CCC[C@@H]1CCCC[C@H]1NC(=S)NCCO [Compound 5, 1-(2-Hydroxy-ethyl)-3-((1R,2R)-2-propyl-cyclohexyl)-thiourea] | 216
15 | C[C@H]1CCC[C@H](NC(=S)NCCO)C1 (relative stereo) [Compound 38, (trans)-1-(2-Hydroxy-ethyl)-3-(3-methyl-cyclohexyl)-thiourea] | 1150
16 | OCCNC(=S)NCC1=C(Cl)CCCC1 [Compound 17, 1-(2-chloro-cyclohex-1-enylmethyl)-3-(2-hydroxy-ethyl)thiourea] | 15
17 | CC1CCCCC1NC(=S)NCCO (stereo not drawn) [Compound 41, 1-(2-Methyl-cyclohexyl)-3-(2-hydroxy-ethyl)-thiourea] | 27

The remaining compounds from weak to strong by EC50, led by results:

Row | EC50 [nM] | Compound
18 | 1530 | C[C@@H]1CCC[C@@H]1NC(=S)NCCO (relative stereo) [Compound 12, 1-(2-Hydroxy-ethyl)-3-(cis-2-methyl-cyclopentyl)-thiourea]
19 | 816 | CCCCC1=CCCC1CNC(=S)NCCO (stereo not drawn) [Compound 26, 1-(2-Butyl-cyclopent-2-enylmethyl)-3-(2-hydroxy-ethyl)-thiourea]
20 | 772 | CCC1=C(CNC(=S)NCCO)CCCC1 [Compound 24, 1-(2-Hydroxy-ethyl)-3-(2-ethyl-cyclohex-1-enylmethyl)-thiourea]
21 | 544 | CC1C=C(CNC(=S)NCCO)CC1 (stereo not drawn) [Compound 28, 1-(2-Hydroxy-ethyl)-3-(3-methyl-cyclopent-1-enylmethyl)-thiourea]
22 | 441 | OCCNC(=S)NCC1CCCC1 [Compound 9, 1-Cyclopentylmethyl-3-(2-hydroxy-ethyl)-thiourea]
23 | 189 | CC(C)[C@@H]1CC[C@@H](C)C[C@H]1NC(=S)NCCO [Compound 2, 1-(2-Hydroxy-ethyl)-3-(1R,2S,5R-2-isopropyl-5-methyl-cyclohexyl)-thiourea]
24 | 126 | CCC1=CCCCC1CNC(=S)NCCO (stereo not drawn) [Compound 22, 1-(2-Hydroxy-ethyl)-3-(2-ethyl-cyclohex-2-enylmethyl)-thiourea]
25 | 111 | CC1=CC(NC(=S)NCCO)CC1 (stereo not drawn) [Compound 13, 1-(2-Hydroxy-ethyl)-3-(3-methyl-cyclopent-2-enyl)-thiourea]
26 | 96 | CCC1=CC(NC(=S)NCCO)CCC1 (stereo not drawn) [Compound 32, 1-(2-Hydroxy-ethyl)-3-(3-ethyl-cyclohex-2-enyl)-thiourea]
27 | 90 | OCCNC(=S)NC1CCCC=C1Br (stereo not drawn) [Compound 29, 1-(2-Bromo-cyclohex-2-enyl)-3-(2-Hydroxy-ethyl)-thiourea]
28 | 78 | CCCC1=CCCCC1NC(=S)NCCO (stereo not drawn) [Compound 30, 1-(2-Hydroxy-ethyl)-3-(2-propyl-cyclohex-2-enyl)-thiourea]
29 | 66 | OCCNC(=S)NCC1C=CCCC1 (stereo not drawn) [Compound 4, 1-(Cyclohex-2-enylmethyl)-3-(2-hydroxy-ethyl)-thiourea]
30 | 10 | OCCNC(=S)NCC1=C(Br)CCCC1 [Compound 18, 1-(2-Bromo-cyclohex-1-enylmethyl)-3-(2-hydroxy-ethyl)-thiourea]

same assay, conditions: NIH-3T3 cells; ratio of maximal effect to that of standard full agonist brimonidine

Row | Compound | fraction of activity of the standard (brimonidine) attained, Alpha 2B (number in parenthesis)
31 | OCCNC(=S)NC1CCCCC1 [Compound 6, 1-Cyclohexyl-3-(2-hydroxy-ethyl)-thiourea] | (0.28)
32 | OCCNC(=S)N[C@H]1CC[C@H](O)CC1 [Compound 7, 1-(4-Hydroxy-cyclohexyl)-3-(2-hydroxy-ethyl)-thiourea] | (0.32)
33 | C[C@H]1CCC[C@H](NC(=S)NCCO)C1 (single isomer, unassigned) [Compound 39, (cis)-1-(2-Hydroxy-ethyl)-3-(3-methyl-cyclohexyl)-thiourea] | (0.65)
34 | OCCNC(=S)NCC1=CCCCC1 [Compound 3, 1-(Cyclohex-1-enylmethyl)-3-(2-hydroxy-ethyl)-thiourea] | (0.8)
35 | OCCNC(=S)NCC1CCCCC1 [Compound 1, 1-Cyclohexylmethyl-3-(2-hydroxy-ethyl)-thiourea] | (0.61)
36 | CC[C@H]1CC[C@H](NC(=S)NCCO)CC1 [Compound 36, (trans)-1-(2-Hydroxy-ethyl)-3-(4-ethyl-cyclohexyl)-thiourea] | (0.53)
37 | CC1=CCCCC1CNC(=S)NCCO (stereo not drawn) [Compound 21, 1-(2-Hydroxy-ethyl)-3-(2-methyl-cyclohex-2-enylmethyl)-thiourea] | (0.87)
38 | CC1=CC(CNC(=S)NCCO)CCC1 (stereo not drawn) [Compound 20, 1-(2-Hydroxy-ethyl)-3-(3-methyl-cyclohex-2-enylmethyl)-thiourea] | (0.78)
39 | CC1=C(CNC(=S)NCCO)CCCC1 [Compound 23, 1-(2-Hydroxy-ethyl)-3-(2-methyl-cyclohex-1-enylmethyl)-thiourea] | (0.68)
40 | CC1=CC(NC(=S)NCCO)CCC1 (stereo not drawn) [Compound 16, 1-(2-Hydroxy-ethyl)-3-(3-methyl-cyclohex-2-enyl)-thiourea] | (0.54)
41 | OCCNC(=S)NCC1CCCCCC1 [Compound 10, 1-Cycloheptylmethyl-3-(2-hydroxy-ethyl)-thiourea] | (0.54)
42 | CC1CC=CCC1CNC(=S)NCCO (stereo not drawn) [Compound 11, 1-(2-hydroxy-ethyl)-3-(6-methyl-cyclohex-3-enylmethyl)-thiourea] | (0.93)
43 | CCC1=CC(CNC(=S)NCCO)CCC1 (stereo not drawn) [Compound 19, 1-(2-Hydroxy-ethyl)-3-(3-ethyl-cyclohex-2-enylmethyl)-thiourea] | (0.46)
44 | CCC[C@@H]1CCCC[C@H]1NC(=S)NCCO [Compound 5, 1-(2-Hydroxy-ethyl)-3-((1R,2R)-2-propyl-cyclohexyl)-thiourea] | (0.49)
45 | C[C@H]1CCC[C@H](NC(=S)NCCO)C1 (relative stereo) [Compound 38, (trans)-1-(2-Hydroxy-ethyl)-3-(3-methyl-cyclohexyl)-thiourea] | (0.4)
46 | OCCNC(=S)NCC1=C(Cl)CCCC1 [Compound 17, 1-(2-chloro-cyclohex-1-enylmethyl)-3-(2-hydroxy-ethyl)thiourea] | (0.63)
47 | CC1CCCCC1NC(=S)NCCO (stereo not drawn) [Compound 41, 1-(2-Methyl-cyclohexyl)-3-(2-hydroxy-ethyl)-thiourea] | (0.78)

Results, then the compound that gave them:

Row | fraction of activity of the standard (brimonidine) attained, Alpha 2B (number in parenthesis) | Compound
48 | (0.47) | C[C@@H]1CCC[C@@H]1NC(=S)NCCO (relative stereo) [Compound 12, 1-(2-Hydroxy-ethyl)-3-(cis-2-methyl-cyclopentyl)-thiourea]
49 | (0.48) | CCCCC1=CCCC1CNC(=S)NCCO (stereo not drawn) [Compound 26, 1-(2-Butyl-cyclopent-2-enylmethyl)-3-(2-hydroxy-ethyl)-thiourea]
50 | (0.71) | CCC1=C(CNC(=S)NCCO)CCCC1 [Compound 24, 1-(2-Hydroxy-ethyl)-3-(2-ethyl-cyclohex-1-enylmethyl)-thiourea]
51 | (0.52) | CC1C=C(CNC(=S)NCCO)CC1 (stereo not drawn) [Compound 28, 1-(2-Hydroxy-ethyl)-3-(3-methyl-cyclopent-1-enylmethyl)-thiourea]
52 | (0.62) | OCCNC(=S)NCC1CCCC1 [Compound 9, 1-Cyclopentylmethyl-3-(2-hydroxy-ethyl)-thiourea]
53 | (0.54) | CC(C)[C@@H]1CC[C@@H](C)C[C@H]1NC(=S)NCCO [Compound 2, 1-(2-Hydroxy-ethyl)-3-(1R,2S,5R-2-isopropyl-5-methyl-cyclohexyl)-thiourea]
54 | (0.73) | CCC1=CCCCC1CNC(=S)NCCO (stereo not drawn) [Compound 22, 1-(2-Hydroxy-ethyl)-3-(2-ethyl-cyclohex-2-enylmethyl)-thiourea]
55 | (0.66) | CC1=CC(NC(=S)NCCO)CC1 (stereo not drawn) [Compound 13, 1-(2-Hydroxy-ethyl)-3-(3-methyl-cyclopent-2-enyl)-thiourea]
56 | (0.37) | CCC1=CC(NC(=S)NCCO)CCC1 (stereo not drawn) [Compound 32, 1-(2-Hydroxy-ethyl)-3-(3-ethyl-cyclohex-2-enyl)-thiourea]
57 | (0.84) | OCCNC(=S)NC1CCCC=C1Br (stereo not drawn) [Compound 29, 1-(2-Bromo-cyclohex-2-enyl)-3-(2-Hydroxy-ethyl)-thiourea]
58 | (0.71) | CCCC1=CCCCC1NC(=S)NCCO (stereo not drawn) [Compound 30, 1-(2-Hydroxy-ethyl)-3-(2-propyl-cyclohex-2-enyl)-thiourea]
59 | (0.63) | OCCNC(=S)NCC1C=CCCC1 (stereo not drawn) [Compound 4, 1-(Cyclohex-2-enylmethyl)-3-(2-hydroxy-ethyl)-thiourea]
60 | (0.77) | OCCNC(=S)NCC1=C(Br)CCCC1 [Compound 18, 1-(2-Bromo-cyclohex-1-enylmethyl)-3-(2-hydroxy-ethyl)-thiourea]
